According to patent US6908919B2, “Substituted polycyclic aryl and heteroaryl pyrazinones useful for selective inhibition of the coagulation cascade” (Pharmacia Corporation, priority 1999, dated 2005):
Read-outs that look alike come from different tables or passages of the source.

What was measured:
[1] = biological target: T1, recombinant soluble tissue factor and recombinant human factor VIIa (TF-VIIa) (Homo sapiens, UniProt P08709); test: TF-VIIa Assay; assay type: biochemical; conditions: for % Inhibition TF-VIIa (100 µM): inhibitor at 100 µM; for IC50: read-out: IC50 TF-VIIa
T1 construct: conversion of coagulation factor VII to VIIa by Xa; purchased American Diagnostica, Greenwich Conn; host or cells: VIIa purchased; soluble TF made in house in E. coli

[2] = biological target: Human factor Xa (Homo sapiens, UniProt P00742); test: Xa Assay; assay type: biochemical; parameters: purchased Enzyme Research Laboratories, South Bend Ind; conditions: for % Inhibition Factor Xa (100 µM): inhibitor at 100 µM
Chain of Human factor Xa (P00742 41-179 limits assumed): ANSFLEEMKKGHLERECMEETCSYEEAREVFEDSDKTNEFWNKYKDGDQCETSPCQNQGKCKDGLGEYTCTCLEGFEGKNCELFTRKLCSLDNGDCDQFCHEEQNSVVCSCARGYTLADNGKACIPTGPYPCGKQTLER
Chain of Human factor Xa (P00742 235-488 limits assumed): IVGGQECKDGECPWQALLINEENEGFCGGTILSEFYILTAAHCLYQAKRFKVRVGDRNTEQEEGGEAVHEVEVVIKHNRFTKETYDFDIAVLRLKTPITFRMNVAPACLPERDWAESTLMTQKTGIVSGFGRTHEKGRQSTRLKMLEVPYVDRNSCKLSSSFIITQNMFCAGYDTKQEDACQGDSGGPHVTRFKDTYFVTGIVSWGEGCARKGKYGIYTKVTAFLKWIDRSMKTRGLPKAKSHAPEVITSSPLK

T1 sequence (P08709 61-212 limits assumed): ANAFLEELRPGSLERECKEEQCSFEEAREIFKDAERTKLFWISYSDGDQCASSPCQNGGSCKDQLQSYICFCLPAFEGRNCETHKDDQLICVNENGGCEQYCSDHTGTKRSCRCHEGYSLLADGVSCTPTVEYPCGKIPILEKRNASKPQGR
T1 sequence (P08709 213-466 limits assumed): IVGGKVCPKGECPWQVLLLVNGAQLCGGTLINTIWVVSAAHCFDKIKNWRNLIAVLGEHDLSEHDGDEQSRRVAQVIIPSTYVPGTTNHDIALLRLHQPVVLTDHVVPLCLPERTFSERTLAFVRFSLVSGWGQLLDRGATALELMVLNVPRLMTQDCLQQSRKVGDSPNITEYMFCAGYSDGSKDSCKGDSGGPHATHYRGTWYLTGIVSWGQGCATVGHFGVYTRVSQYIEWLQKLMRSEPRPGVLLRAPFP
T1 sequence (P13726 33-251 partner limits assumed): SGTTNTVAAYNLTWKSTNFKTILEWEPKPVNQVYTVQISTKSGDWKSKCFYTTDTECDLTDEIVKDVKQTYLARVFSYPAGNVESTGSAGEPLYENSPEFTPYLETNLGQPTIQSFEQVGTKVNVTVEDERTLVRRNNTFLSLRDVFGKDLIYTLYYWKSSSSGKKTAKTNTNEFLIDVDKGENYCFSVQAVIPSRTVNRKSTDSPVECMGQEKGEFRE

## CCCCNc1nc(Cl)c(-c2ccccc2)n(CC(=O)NCc2ccc(C(=N)N)cc2)c1=O [Example 1517-35]
[1]; at 30 µM
  % Inhibition TF-VIIa (30 µM): 33%
[2]; at 30 µM
  % Inhibition Factor Xa (30 µM): 0%

## CC(=O)Nc1cccc(-c2c(Cl)nc(NC(C)C)c(=O)n2CC(=O)NCCc2ccc(C(=N)N)cc2)c1 [Example 68]
[1]; at 30 µM inhibitor
  % Inhibition TF-VIIa (30 µM): 32%
[2]; at 30 µM inhibitor
  % Inhibition Factor Xa (30 µM): 6%

## O=C(Cn1c(-c2cccc(Cl)c2)c(Cl)nc(NCCc2ccc(Cl)cc2)c1=O)NCCc1cccnc1 [Example E-0083]
[1]
  % Inhibition TF-VIIa (100 µM): 2%
[2]
  % Inhibition Factor Xa (100 µM): 3%

## COc1ccc(-c2c(Cl)nc(NCc3ccccc3)c(=O)n2CC(=O)NCc2ccc(C(=N)N)cc2)cc1 [1471-33]
[1]; at 30 µM inhibitor
  % Inhibition TF-VIIa (30 µM): 31%
[2]; at 30 µM inhibitor
  % Inhibition Factor Xa (30 µM): 22%

## CC(C)Nc1nc(Cl)c(-c2cc(N)cc(C(=O)NCc3ccccc3)c2)n(CC(=O)NCc2ccc(C(=N)N)cc2)c1=O [Example 128-9]
[1]
  IC50: 0.007 µM
[2]; at 100 μM inhibitor
  inhibition at 100 µM: 36%

## N=C(N)c1ccc(CNC(=O)Cn2c(-c3ccc(-c4ccccc4)cc3)c(Cl)nc(NCCc3cccc(Cl)c3)c2=O)cc1 [1471-70]
[1]; at 30 µM inhibitor
  % Inhibition TF-VIIa (30 µM): 10%
[2]; at 30 µM inhibitor
  % Inhibition Factor Xa (30 µM): 12%

## O=C(Cn1c(Cc2ccccc2)c(Cl)nc(NCCN2CCOCC2)c1=O)NCCc1ccncc1 [Example E-0063]
[1]
  % Inhibition TF-VIIa (100 µM): 0%
[2]
  % Inhibition Factor Xa (100 µM): 0%

## N=C(N)c1ccc(CNC(=O)Cn2c(-c3ccc(Cl)cc3)c(Cl)nc(NCCN3CCOCC3)c2=O)cc1 [1471-20]
[1]; at 30 µM inhibitor
  % Inhibition TF-VIIa (30 µM): 42%
[2]; at 30 µM inhibitor
  % Inhibition Factor Xa (30 µM): 34%

## Cc1c(Cl)nc(NCCc2ccc(Cl)cc2)c(=O)n1CC(=O)NCCc1ccncc1 [Example E-0004]
[1]
  % Inhibition TF-VIIa (100 µM): 0%
[2]
  % Inhibition Factor Xa (100 µM): 0%

## Cc1c(Cl)nc(NCCc2ccccc2)c(=O)n1CC(=O)NCCc1ccncc1 [Example E-0002]
[1]
  % Inhibition TF-VIIa (100 µM): 0%
[2]
  % Inhibition Factor Xa (100 µM): 0%

## COc1ccc(-c2c(Cl)nc(NCc3ccncc3)c(=O)n2CC(=O)NCCc2ccncc2)cc1 [Example E-0040]
[1]
  % Inhibition TF-VIIa (100 µM): 0%
[2]
  % Inhibition Factor Xa (100 µM): 0%

## O=C(Cn1c(-c2ccccc2)c(Cl)nc(NCCc2ccncc2)c1=O)NCCc1ccncc1 [Example E-0014]
[1]
  % Inhibition TF-VIIa (100 µM): 0%
[2]
  % Inhibition Factor Xa (100 µM): 0%

## O=C(Cn1c(-c2ccc(Cl)cc2)c(Cl)nc(NCc2ccncc2)c1=O)NCCc1ccncc1 [Example E-0032]
[1]
  % Inhibition TF-VIIa (100 µM): 0%
[2]
  % Inhibition Factor Xa (100 µM): 0%

## N=C(N)c1ccc(CNC(=O)Cn2c(-c3ccc(-c4ccccc4)cc3)c(Cl)nc(NCCc3ccc(Cl)cc3)c2=O)cc1 [Example 22]
[1]
  % Inhibition TF-VIIa (30 µM): 0% @ 30
[2]
  % Inhibition Factor Xa (30 µM): 13% @ 30

## O=C(Cn1c(-c2ccc(Cl)cc2)c(Cl)nc(NCc2ccccc2)c1=O)NCCc1ccncc1 [Example E-0017]
[1]
  % Inhibition TF-VIIa (100 µM): 0%
[2]
  % Inhibition Factor Xa (100 µM): 0%

## O=C(Cn1c(CCc2ccccc2)c(Cl)nc(NCCc2cccnc2)c1=O)NCCc1ccncc1 [Example E-0069]
[1]
  % Inhibition TF-VIIa (100 µM): 0%
[2]
  % Inhibition Factor Xa (100 µM): 0%

## COc1ccc(-c2c(Cl)nc(NCCc3cccc(Cl)c3)c(=O)n2CC(=O)NCCc2cccnc2)cc1 [Example E-0104]
[1]
  % Inhibition TF-VIIa (100 µM): 3%
[2]
  % Inhibition Factor Xa (100 µM): 5%

## CC(C)Nc1nc(Cl)c(-c2cc(N)cc(C(=O)O)c2)n(CC(=O)NCc2ccc(C(=N)N)cc2)c1=O [Example 123]
[1]
  IC50: 0.02 µM

## C[C@@H](Nc1nc(Cl)c(-c2cccc(N)c2)n(CC(=O)NCc2ccc(C(=N)N)cc2)c1=O)C(=O)O [Example 134]
[1]
  IC50: 0.051 µM

## N=C(N)c1ccc(CNC(=O)Cn2c(-c3ccc(C(F)(F)F)cc3)c(Cl)nc(NC3CCC3)c2=O)cc1 [1515-20]
[1]; at 30 µM inhibitor
  % Inhibition TF-VIIa (30 µM): 32%

## CC(C)Nc1nc(Cl)c(-c2cc(N)cc(C(=O)NC3CCc4ccccc4C3)c2)n(CC(=O)NCc2ccc(C(=N)N)cc2)c1=O (stereo not shown) [Example 128-24]
[1]
  IC50: 0.0187 µM

## CC(C)Nc1nc(Cl)c(-c2cc(N)cc(C(=O)NCc3ccc4ccccc4c3)c2)n(CC(=O)NCc2ccc(C(=N)N)cc2)c1=O [Example 128-23]
[1]
  IC50: 0.0337 µM

## CC(C)Nc1nc(Cl)c(-c2cc(N)cc(C(=O)NCc3ccccc3Cl)c2)n(CC(=O)NCc2ccc(C(=N)N)cc2)c1=O [Example 128-10]
[1]
  IC50: 0.009 µM

## N=C(N)c1ccc(CNC(=O)Cn2c(-c3ccc4c(c3)OCO4)c(Cl)nc(NCc3ccccc3)c2=O)cc1 [1471-41]
[2]; at 30 µM inhibitor
  % Inhibition Factor Xa (30 µM): 34%

## N=C(N)c1ccc(CNC(=O)Cn2c(-c3ccccc3)c(Cl)nc(NCC3COc4ccccc4O3)c2=O)cc1 (stereo not shown) [1512-01]
[2]; at 30 µM inhibitor
  % Inhibition Factor Xa (30 µM): 4%

## C[C@H](C(=O)NCc1ccc(C(=N)N)cc1)n1c(-c2ccccc2)c(Cl)nc(NCCc2ccccc2)c1=O [Example 1517-17]
[2]; at 30 µM
  % Inhibition Factor Xa (30 µM): 0%

## N=C(N)c1ccc(CNC(=O)Cn2c(-c3ccccc3)c(Cl)nc(NCc3ccc(Cl)cc3Cl)c2=O)cc1 [1507-22]
[1]; at 30 µM inhibitor
  % Inhibition TF-VIIa (30 µM): 45%

## Nc1n[nH]c2cc(CNC(=O)Cn3c(-c4ccccc4)cnc(NCCc4ccccc4)c3=O)ccc12 [Example 39]
[2]; at 30 µM inhibitor
  % Inhibition Factor Xa (30 µM): 0%

## CN1CCCC1CCNc1nc(Cl)c(-c2ccccc2)n(CC(=O)NCc2ccc(C(=N)N)cc2)c1=O (stereo not shown) [1512-46]
[2]; at 30 µM inhibitor
  % Inhibition Factor Xa (30 µM): 10%

## N=C(N)c1ccc(CNC(=O)Cn2c(-c3ccccc3)c(Cl)nc(NC(Cc3ccccc3)c3ccccc3)c2=O)cc1 (stereo not shown) [1507-07]
[1]; at 30 µM inhibitor
  % Inhibition TF-VIIa (30 µM): 25%

## COc1ccc(-c2c(Cl)nc(NCCc3ccccc3)c(=O)n2CC(=O)NCCc2ccncc2)cc1 [Example E-0100]
[2]
  % Inhibition Factor Xa (100 µM): 6%

## N=C(N)NC/C=C\CNC(=O)Cn1c(-c2ccccc2)cnc(NCCc2ccccc2)c1=O [Example 37]
[2]; at 30 µM inhibitor
  % Inhibition Factor Xa (30 µM): 0%

## N=C(N)c1ccc(CNC(=O)Cn2c(-c3ccccc3)c(Cl)nc(NCc3cccc4ccccc34)c2=O)cc1 [1507-28]
[1]; at 30 µM inhibitor
  % Inhibition TF-VIIa (30 µM): 38%

## Cc1c(Cl)nc(NCCc2ccccc2)c(=O)n1CC(=O)NCc1ccc(C(=N)N)cc1 [1471-7]
[2]; at 30 µM inhibitor
  % Inhibition Factor Xa (30 µM): 4%

## N=C(N)c1ccc(CNC(=O)Cn2c(-c3ccccc3)c(Cl)nc(NC3CCCCCC3)c2=O)cc1 [1507-29]
[2]; at 30 µM inhibitor
  % Inhibition Factor Xa (30 µM): 4%

## N=C(N)c1ccc(CNC(=O)Cn2c(-c3ccccc3)c(Cl)nc(NCc3ccccc3OC(F)(F)F)c2=O)cc1 [1512-42]
[2]; at 30 µM inhibitor
  % Inhibition Factor Xa (30 µM): 1%

## CC(C)CNc1nc(Cl)c(-c2cccc(N)c2)n(CC(=O)NCc2ccc(C(=N)N)cc2F)c1=O [1543-38]
[2]; at 30 µM
  % Inhibition Factor Xa (30 µM): 14%

## N=C(N)c1ccc(CNC(=O)Cn2c(-c3cccc(Cl)c3)c(Cl)nc(NCc3ccccc3)c2=O)cc1 [1471-25]
[2]; at 30 µM inhibitor
  % Inhibition Factor Xa (30 µM): 31%

## N=C(N)c1ccc(CNC(=O)Cn2c(-c3ccsc3)c(Cl)nc(NCc3ccccc3)c2=O)cc1 [Example 1517-01]
[2]; at 30 µM inhibitor
  % Inhibition Factor Xa (30 µM): 0%

## C[Si](C)(C)CNc1nc(Cl)c(-c2ccccc2)n(CC(=O)NCc2ccc(C(=N)N)cc2)c1=O [Example 1517-36]
[2]; at 30 µM
  % Inhibition Factor Xa (30 µM): 0%

## N=C(N)c1ccc(CNC(=O)Cn2c(-c3c(Cl)cccc3Cl)c(Cl)nc(NCCc3cccc(Cl)c3)c2=O)cc1 [Example 1517-24]
[2]; at 30 µM
  % Inhibition Factor Xa (30 µM): 0%

## CC(C)Nc1nc(Cl)c(-c2cccc(N)c2)n(CC(=O)NCc2ccc(C(=N)N)cc2F)c1=O [1543-40]
[2]; at 30 µM
  % Inhibition Factor Xa (30 µM): 10%

## CSCC(C(=O)NCc1ccc(C(=N)N)cc1)n1c(-c2ccccc2)c(Cl)nc(NCCc2ccccc2)c1=O (stereo not shown) [Example 1517-16]
[2]; at 30 µM
  % Inhibition Factor Xa (30 µM): 0%

## CC(C)Nc1nc(Cl)c(-c2cc(N)cc(C(=O)NCCCc3ccccc3)c2)n(CC(=O)NCc2ccc(C(=N)N)cc2)c1=O [Example 128-21]
[1]
  IC50: 0.037 µM

## N=C(N)c1ccc(CNC(=O)Cn2c(-c3cccc(Cl)c3)c(Cl)nc(NCCc3ccccc3)c2=O)cc1 [1471-31]
[2]; at 30 µM inhibitor
  % Inhibition Factor Xa (30 µM): 17%

## N=C(N)c1ccc(CNC(=O)Cn2c(-c3ccsc3)c(Cl)nc(NCCc3ccccc3)c2=O)cc1 [Example 1517-13]
[2]; at 30 µM
  % Inhibition Factor Xa (30 µM): 0%

## CC(C)Nc1nc(Cl)c(-c2cc(N)cc(C(=O)NCC(c3ccccc3)c3ccccc3)c2)n(CC(=O)NCc2ccc(C(=N)N)cc2)c1=O [Example 128-22]
[1]
  IC50: 0.052 µM

## N=C(N)c1ccc(CNC(=O)Cn2c(-c3cccc(Cl)c3)c(Cl)nc(NCCN3CCOCC3)c2=O)cc1 [1471-28]
[2]; at 30 µM inhibitor
  % Inhibition Factor Xa (30 µM): 8%

## N=C(N)c1ccc(CNC(=O)Cn2c(-c3ccccc3)c(Cl)nc(NC3CCc4ccccc43)c2=O)cc1 (stereo not shown) [1507-02]
[2]; at 30 µM inhibitor
  % Inhibition Factor Xa (30 µM): 9%

## CCNc1nc(Cl)c(-c2cccc(N)c2)n(CC(=O)NCc2ccc(C(=N)N)cc2F)c1=O [1543-31]
[2]; at 30 µM
  % Inhibition Factor Xa (30 µM): 8%

## N=C(N)c1ccc(CNC(=O)Cn2c(-c3cccc(N)c3)c(Cl)nc(NCCCCN3CCCC3)c2=O)cc1 [1543-21]
[2]; at 30 µM
  % Inhibition Factor Xa (30 µM): 27%

## N=C(N)c1ccc(CNC(=O)Cn2c(-c3ccc4c(c3)OCO4)c(Cl)nc(NCCc3ccc(Cl)cc3)c2=O)cc1 [1471-42]
[2]; at 30 µM inhibitor
  % Inhibition Factor Xa (30 µM): 15%

## CCCCC(CC)Nc1nc(Cl)c(-c2ccccc2)n(CC(=O)NCc2ccc(C(=N)N)cc2)c1=O (stereo not shown) [1512-12]
[2]; at 30 µM inhibitor
  % Inhibition Factor Xa (30 µM): 5%
